Data published in patent US20250302817A1, “METHODS FOR TREATING PTEN-MUTANT TUMORS” (Icahn School of Medicine at Mount Sinai, priority 2016, published 2025).
Read-outs that look alike come from different tables or passages of the source.

Key:
[1] = multiple sclerosis patients, cited from earlier work; for Alopecia / Arthralgia / Diarrhea / Headache / Nausea / Neutropenia / Parathesia: all grades
[2] = system: ATR phosphorylation of CHK1 at serine 345; assay: Immunoblot of pChk1; type: cell-based; details: 150 μM A771726; Pten WT versus Pten^−/− cells

C/C(O)=C(\C#N)C(=O)Nc1ccc(C(F)(F)F)cc1 [teriflunomide, (Z)-2-Cyano-3-hydroxy-but-2-enoic acid-(4trifluoromethylphenyl)-amide]
Alopecia ([1]; 7 mg/day (n = 1045)): 10% | Arthralgia ([1]; 7 mg/day (n = 1045)): 8% | Diarrhea ([1]; 7 mg/day (n = 1045)): 13% | Headache ([1]; 7 mg/day (n = 1045)): 18% | Nausea ([1]; 7 mg/day (n = 1045)): 8% | Neutropenia ([1]; 7 mg/day (n = 1045)): 4% | Parathesia ([1]; 7 mg/day (n = 1045)): 8% | Elevated ALT, >3 × upper limit of normal ([1]; 7 mg/day (n = 1045)): 6% | Elevated ALT, serious adverse events leading to treatment withdrawal ([1]; 7 mg/day (n = 1045)): 3% | Hypertension (new onset) ([1]; 7 mg/day (n = 1045)): 3% | Peripheral Neuropathy, serious adverse events leading to treatment withdrawal ([1]; 7 mg/day (n = 1045)): 0.3% | Serious Infection ([1]; 7 mg/day (n = 1045)): 2% | Alopecia ([1]; 14 mg/day (n = 1002)): 13% | Arthralgia ([1]; 14 mg/day (n = 1002)): 6% | Diarrhea ([1]; 14 mg/day (n = 1002)): 14% | Headache ([1]; 14 mg/day (n = 1002)): 16% | Nausea ([1]; 14 mg/day (n = 1002)): 11% | Neutropenia ([1]; 14 mg/day (n = 1002)): 6% | Parathesia ([1]; 14 mg/day (n = 1002)): 9% | Elevated ALT, >3 × upper limit of normal ([1]; 14 mg/day (n = 1002)): 6% | Elevated ALT, serious adverse events leading to treatment withdrawal ([1]; 14 mg/day (n = 1002)): 3% | Hypertension (new onset) ([1]; 14 mg/day (n = 1002)): 4% | Peripheral Neuropathy, serious adverse events leading to treatment withdrawal ([1]; 14 mg/day (n = 1002)): 0.5% | Serious Infection ([1]; 14 mg/day (n = 1002)): 3% | ATR phosphorylation of CHK1 at serine 345 [2]: triggered ATR phosphorylation of CHK1 at serine 345 in Pten WT, but to a much lesser extent in Pten^−/− cells
